Experimental data reported in patent US20250108036A1, “COMPOSITIONS FOR REMOVING SENESCENT CELLS AND USES THEREOF” (LIFECEUTIX CO., LTD., priority 2021, published 2025).

Legend:
Type in all cases: cell-based, human
[1] = system: foreskin cells in which senescence was induced by doxorubicin; assay: CellTiter-Glo cell viability of doxorubicin-induced senescent foreskin cells (Examples 1-2, 10, 11, 13; Tables 4, 63, 65); conditions: Homo sapiens, 72 h, doxorubicin-induced senescent foreskin cells, CellTiter-Glo, 0 μM = 100, read-out: Survival (%); for viability at 1.1 µM: 1.1 μM test compound; for viability at […]: […] test compound; for viability at 10 µM: 10 μM test compound; for viability at 30 µM: 30 μM test compound; for viability at 90 µM: 90 μM test compound
Procedure: After 3 days, cell viability was measured using CellTiter-Glo Luminescent Cell Viability Assay (Promega) or light microscopy.

HMGN1 [2] = assay: HMGN1 ELISA in culture medium of A549 cancer cells (Example 12, Table 66); conditions: Homo sapiens, A549, doxorubicin-induced senescent A549 cells, ELISA, DMSO = 100, read-out: HMGN1 (amount of HMGN1 secreted in the cell culture); for activity at 30 µM: test compound 30 μM; for activity at 270 µM: test compound 270 μM
A549 = assay: CellTiter-Glo cell viability of senescent A549 cancer cells (Example 12, Table 67); conditions: Homo sapiens, A549, doxorubicin-induced senescent A549 cancer cells, CellTiter-Glo, read-out: Survival (%); for viability at 1.1 µM: 1.1 μM test compound; for viability at 10 µM: 10 μM test compound; for viability at 30 µM: 30 μM test compound; for viability at 90 µM: 90 μM test compound; for viability at 270 µM: 270 μM test compound
HMGN1 [3] = assay: HMGN1 ELISA in culture medium of foreskin cells (Examples 10, 11; Tables 62, 63, 64); conditions: Homo sapiens, doxorubicin-treated foreskin cells, DMSO = 100; for activity at 30 µM: 30 μM test compound, read-out: HMGN1

SMILES	viability at 1.1 µM [1] [%]	viability at […] [1] [%]	activity at 30 µM (HMGN1 [2]) [%]	viability at 1.1 µM (A549) [%]	viability at 10 µM (A549) [%]	activity at 30 µM (HMGN1 [3]) [%]	viability at 10 µM [1] [%]	viability at 30 µM [1] [%]	activity at 90 µM (HMGN1 [2]; test compound 90 μM) [%]	viability at 30 µM (A549) [%]	viability at 90 µM (A549) [%]	viability at 90 µM [1] [%]	activity at 270 µM (HMGN1 [2]) [%]	viability at 270 µM (A549) [%]	activity at 90 µM (HMGN1 [3]; 90 μM test compound) [%]	viability at 270 µM ([1]; 270 μM test compound) [%]	activity at 270 µM (HMGN1 [3]; 270 μM test compound) [%]
C[C@H]1[C@H](C)CC[C@]2(C(=O)O)CC[C@]3(C)C(=CC[C@@H]4[C@@]5(C)C[C@@H](O)[C@H](O)C(C)(C)[C@@H]5CC[C@]43C)[C@H]12 [LX-2002, Corosolic acid]	101	12.4	314	99.6	10.4	305	–	–	–	–	–	–	–	–	–	–	–
CC1(C)CC[C@]2(C(=O)O)CC[C@]3(C)C(=CC[C@@H]4[C@@]5(C)CC[C@H](O)C(C)(C)[C@@H]5CC[C@]43C)[C@@H]2C1 [LX-2003, Oleanolic acid]	89.6	65.8	–	97.5	90.6	298	34.6	14	218	52.7	18.3	–	–	–	–	–	–
C=C(C)[C@@H]1CC[C@]2(C(=O)O)CC[C@]3(C)[C@H](CC[C@@H]4[C@@]5(C)CC[C@H](O)C(C)(C)[C@@H]5CC[C@]43C)[C@@H]12 [LX-2005, Betulinic acid]	97.5	93.3	–	102	95.7	–	87.2	73.8	–	82.9	57.2	31.5	252	5.3	212	–	–
CC1(C)C=C2[C@H]3CC[C@@H]4[C@@]5(C)CCC(=O)C(C)(C)[C@@H]5CC[C@@]4(C)[C@]3(C)CC[C@@]2(C(=O)O)CC1 [LX-2007, Moronic acid]	105	98.9	–	111	96.3	–	91.2	83.9	–	87.9	62.8	47.2	192	32.4	–	1.3	255
COC(=O)[C@]12CCC(C)(C)C[C@H]1[C@H]1C(=O)C=C3[C@@]4(C)C=C(C#N)C(=O)C(C)(C)[C@@H]4CC[C@@]3(C)[C@]1(C)CC2 [LX-2102, Bardoxolone methyl, reference compound]	9.4	–	233	88.4	–	288	–	–	–	–	–	–	–	–	–	–	–
C[C@@H]1C(=O)C(C#N)=C[C@]2(C)C3=CC(=O)[C@@H]4[C@@H]5CC(C)(C)CC[C@]5(NC(=O)C(C)(F)F)CC[C@@]4(C)[C@]3(C)CC[C@@H]12 [LX-2201]	9.8	–	326	28.4	–	318	–	–	–	–	–	–	–	–	–	–	–
COC(=O)[C@]12CCC(C)(C)C[C@H]1[C@H]1C(=O)C[C@@H]3[C@@]4(C)C=C(C#N)C(=O)C(C)(C)[C@@H]4CC[C@@]3(C)[C@]1(C)CC2 [LX-2301]	2.6	–	274	21.5	–	283	–	–	–	–	–	–	–	–	–	–	–
CC1(C)CC[C@]2(C(=O)NCC(F)(F)F)CC[C@]3(C)[C@H](C(=O)C[C@@H]4[C@@]5(C)C=C(C#N)C(=O)C(C)(C)[C@@H]5CC[C@]43C)[C@@H]2C1 [LX-2302, Dihydro-CDDO-Trifluoroethyl Amide]	48.9	6.3	313	95.9	5.4	279	–	–	–	–	–	–	–	–	–	–	–
COC(=O)N[C@]12CCC(C)(C)C[C@H]1[C@H]1C(=O)C=C3[C@@]4(C)C=C(C#N)C(=O)C(C)(C)[C@@H]4CC[C@@]3(C)[C@]1(C)CC2 [LX-2305]	19.6	–	269	33.6	–	292	–	–	–	–	–	–	–	–	–	–	–
CC1(C)CC[C@]2(NS(C)(=O)=O)CC[C@]3(C)[C@H](C(=O)C=C4[C@@]5(C)C=C(C#N)C(=O)C(C)(C)[C@@H]5CC[C@]43C)[C@@H]2C1 [LX-2306]	29.8	7.1	296	102	11.5	301	–	–	–	–	–	–	–	–	–	–	–
COC(=O)C[C@]12CCC(C)(C)C[C@H]1[C@H]1C(=O)C=C3[C@@]4(C)C=C(C#N)C(=O)C(C)(C)[C@@H]4CC[C@@]3(C)[C@]1(C)CC2 [LX-2307]	15.4	–	279	4.8	–	271	–	–	–	–	–	–	–	–	–	–	–
C[C@]12C=C(C#N)C(=O)C3(CC=CC3)C1=CC[C@@H]1[C@@H]2CC[C@]2(C)C(=O)CC[C@@H]12 [LX-2308]	49.6	5.9	287	96.6	23.5	329	–	–	–	–	–	–	–	–	–	–	–
CC1(C)CC[C@]2(C(=O)NO)CC[C@]3(C)[C@H](C(=O)C=C4[C@@]5(C)C=C(C#N)C(=O)C(C)(C)[C@@H]5CC[C@]43C)[C@@H]2C1 [LX-2309]	69.7	2.7	322	112	14.9	307	–	–	–	–	–	–	–	–	–	–	–
CONC(=O)[C@]12CCC(C)(C)C[C@H]1[C@H]1C(=O)C=C3[C@@]4(C)C=C(C#N)C(=O)C(C)(C)[C@@H]4CC[C@@]3(C)[C@]1(C)CC2 [LX-2310]	53.7	6.9	319	100	3.5	315	–	–	–	–	–	–	–	–	–	–	–
C=C(C)[C@@H]1CC[C@]2(C(=O)NCC)CC[C@]3(C)[C@H](CCC4[C@@]5(C)C=C(C#N)C(=O)C(C)(C)[C@@H]5CC[C@]43C)[C@@H]12 (stereo partly shown) [LX-2311]	39.5	4.1	276	97.5	8.9	271	–	–	–	–	–	–	–	–	–	–	–
C[C@@H]1C(=O)C(C#N)=C[C@]2(C)c3nn(C)c(-c4ccccc4)c3CC[C@@H]12 [LX-2312]	48.6	5.2	339	96.3	7.8	293	–	–	–	–	–	–	–	–	–	–	–
COc1nc(-c2cccnc2)nc2c1CC[C@H]1[C@H](C)C(=O)C(C#N)=C[C@]21C [LX-2315]	75.2	2.9	247	98.2	39.2	235	–	–	–	–	–	–	–	–	–	–	–
COC(=O)[C@]12CCC(C)(C)C[C@H]1[C@H]1C(=O)C=C3[C@@]4(C)C=C(C#N)C(=O)[C@@H](C)[C@@H]4CC[C@@]3(C)[C@]1(C)CC2 [LX-2316]	36.6	0.9	263	106	25.4	274	–	–	–	–	–	–	–	–	–	–	–
C[C@@H]1C(=O)C(C#N)=C[C@]2(C)C3=CC(=O)[C@@H]4[C@@H]5CC(C)(C)CC[C@]5(CO)CC[C@@]4(C)[C@]3(C)CC[C@@H]12 [LX-2317]	48.2	7.8	282	93.5	29.7	317	–	–	–	–	–	–	–	–	–	–	–
CC1(C)CC[C@]2(CO)CC[C@]3(C)[C@H](C(=O)C=C4[C@@]5(C)[C@H]6O[C@@]6(C#N)C(=O)C(C)(C)[C@@H]5CC[C@]43C)[C@@H]2C1 [LX-2318]	78.3	12.1	278	94.1	31.1	264	–	–	–	–	–	–	–	–	–	–	–
C[C@@H]1C(=O)[C@]2(C#N)O[C@@H]2[C@]2(C)C3=CC(=O)[C@@H]4[C@@H]5CC(C)(C)CC[C@]5(NC(=O)C(C)(F)F)CC[C@@]4(C)[C@]3(C)CC[C@@H]12 [LX-2319]	52.9	21.9	310	96.5	21.3	241	–	–	–	–	–	–	–	–	–	–	–
Cc1noc([C@]23CCC(C)(C)C[C@H]2[C@H]2C(=O)C=C4[C@@]5(C)C=C(C#N)C(=O)C(C)(C)[C@@H]5CC[C@@]4(C)[C@]2(C)CC3)n1 [LX-2401]	46.4	6.8	284	108	15.9	303	–	–	–	–	–	–	–	–	–	–	–
